According to paper PMC4550478, “Metronidazole-triazole conjugates: Activity against Clostridium difficile and parasites” (European Journal of Medicinal Chemistry, 2015):

Tested on: 8 additional drug resistant S. aureus strains, vancomycin resistant E. faecalis, vancomycin resistant E. faecium and multidrug resistant S. pneumoniae
Assay: MIC broth microdilution, drug resistant Gram-positive panel
Format: cell-based
Settings: all strains of the panel
Protocol: All compounds were tested for activity against a set of anaerobic C. difficile bacteria (630 ATCC BAA-1382, NAP1/027 M7404, NAP1/027 ATCC BAA-1803, VPI10463 ATCC 43255, CD26A54_S and CD26A54_R) and representative ESKAPE pathogens S. aureus (MRSA ATCC 43300), E. coli (ATCC 25922), K. pneumoniae (ATCC 700603), A. baumannii (ATCC 19606) and P. aeruginosa (ATCC 27853) using a standard broth microdilution assay. Selected compounds were tested for activity against H. pylori strains (26695, and clinical isolates MtzS 13/25, MtzR 98/285 and MtzR 13/61) using agar plate dilution, and for antimicrobial activity against […] Gram-positive bacterial strains: Enterococcus faecalis (VanA clinical isolate), Enterococcus faecium (MDR VanA ATCC 51559), Streptococcus pneumoniae (MDR ATCC 700677), S. aureus (MRSA ATCC 43300, MRSA clinical isolate, MRSA/DRSA clinical isolate, GISA NARSA NRS 1, GISA NARSA NRS 17, VRSA NARSA VRS1, VRSA NARSA VRS4 and VRSA NARSA VRS10) using broth microdilution. C. difficile strains were grown at 37 °C in a COY anaerobic chamber (5% H2, 10% CO2, 85% N2). H. pylori strains were grown at 37 °C under a microaerobic atmosphere (5% O2, 10% CO2). All facultative anaerobic bacteria were grown at 37 °C with normal atmospheric oxygen levels. All experiments were performed in duplicate with metronidazole, vancomycin, linezolid or colistin as positive controls for relevant strains (see Table 1). Positive growth control of bacteria and DMSO as well as a negative control of only media were included for every plate. Full assay details are provided in the supplementary information.
MICs were determined by a two-fold serial broth micro dilution according to the recommendation of CLSI standards with an inoculum of 5 × 10^5 CFU/mL^4 The compounds along with standard antibiotics were serially diluted twofold across the wells of 96-well non-binding surface plates (NBS, Corning). Standards ranged from 64 to 0.03 μg/mL, and the compounds from 128 to 0.06 μg/mL with final volumes of 50 μL per well. Gram-positive and Gram-negative bacteria were cultured in Mueller Hinton broth (MHB) (Bacto laboratories, Cat. no. 211443) at 37 °C overnight. A sample of each culture was then diluted 40-fold in fresh MHB broth and incubated at 37 °C for 2-3 h. The resultant mid-log phase cultures were diluted to the final concentration of 5 × 10^5 CFU/mL, then 50 μL was added to each well of the compound containing 96-well plates. All the plates were covered and incubated at 37 °C for 24 h.

`Cc1ncc([N+](=O)[O-])n1CCN=[N+]=[N-]` [Compound 3, 1-(2-azidoethyl)-2-methyl-5-nitro-1H-imidazole] was tested, and the “MIC against panel of drug resistant Gram-positive strains” value was over 64 µg/mL.
